The results in this text go back to BindingDB's records for doi:10.1016/j.bmcl.2009.03.150 (Gsk, 2009).

Assay in all cases: Enzyme Inhibition Assay
Assay [1] concerns the target Cathepsin D (Homo sapiens, UniProt P07339).
The target in assay [2] is Beta-secretase 1 (Homo sapiens, UniProt P56817). The note with it: pH 4.5; 22 °C.
For assay [3], the target named is T1, Beta-secretase 2 (Homo sapiens, UniProt Q9Y5Z0).
T1 sequence (Q9Y5Z0 whole entry): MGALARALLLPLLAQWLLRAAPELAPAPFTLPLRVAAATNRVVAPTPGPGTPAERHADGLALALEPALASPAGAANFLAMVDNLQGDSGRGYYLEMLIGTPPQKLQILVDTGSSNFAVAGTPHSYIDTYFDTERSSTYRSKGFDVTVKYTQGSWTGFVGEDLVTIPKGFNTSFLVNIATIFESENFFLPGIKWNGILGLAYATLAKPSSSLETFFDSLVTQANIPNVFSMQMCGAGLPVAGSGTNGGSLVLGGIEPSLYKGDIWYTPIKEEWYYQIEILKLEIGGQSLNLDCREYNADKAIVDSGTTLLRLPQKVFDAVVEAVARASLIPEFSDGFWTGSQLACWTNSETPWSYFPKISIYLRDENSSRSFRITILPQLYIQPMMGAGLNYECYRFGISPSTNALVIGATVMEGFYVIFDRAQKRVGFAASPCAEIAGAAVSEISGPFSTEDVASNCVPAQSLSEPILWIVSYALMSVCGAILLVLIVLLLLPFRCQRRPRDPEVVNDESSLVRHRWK

Chain of Cathepsin D (P07339 65-162 limits assumed): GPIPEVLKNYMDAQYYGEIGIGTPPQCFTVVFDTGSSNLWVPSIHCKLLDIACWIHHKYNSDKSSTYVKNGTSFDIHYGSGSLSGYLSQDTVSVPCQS
Chain of Cathepsin D (P07339 169-412 limits assumed): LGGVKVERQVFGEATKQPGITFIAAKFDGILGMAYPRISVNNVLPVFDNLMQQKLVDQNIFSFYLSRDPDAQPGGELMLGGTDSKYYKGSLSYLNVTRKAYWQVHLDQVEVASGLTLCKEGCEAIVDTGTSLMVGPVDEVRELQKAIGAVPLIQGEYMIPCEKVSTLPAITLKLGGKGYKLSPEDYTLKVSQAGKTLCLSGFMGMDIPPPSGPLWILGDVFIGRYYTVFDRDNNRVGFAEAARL
Chain of Beta-secretase 1 (P56817 whole entry): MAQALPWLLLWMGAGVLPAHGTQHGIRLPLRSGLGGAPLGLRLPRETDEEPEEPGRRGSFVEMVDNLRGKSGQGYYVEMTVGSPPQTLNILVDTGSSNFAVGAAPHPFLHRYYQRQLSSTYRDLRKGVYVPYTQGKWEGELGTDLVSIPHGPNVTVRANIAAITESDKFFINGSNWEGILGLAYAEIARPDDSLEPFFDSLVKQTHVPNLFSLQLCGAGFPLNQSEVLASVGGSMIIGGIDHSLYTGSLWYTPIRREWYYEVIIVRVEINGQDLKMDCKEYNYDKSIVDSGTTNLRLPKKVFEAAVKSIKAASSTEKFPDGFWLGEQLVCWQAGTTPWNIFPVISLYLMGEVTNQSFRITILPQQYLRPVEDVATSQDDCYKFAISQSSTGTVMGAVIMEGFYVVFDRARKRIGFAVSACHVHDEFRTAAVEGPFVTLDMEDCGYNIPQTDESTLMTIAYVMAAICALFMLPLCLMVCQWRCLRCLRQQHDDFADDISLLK

In the case of `CCN1CCN2CCS(=O)(=O)N(C)C3C=C(C(=O)N[C@@H](Cc4ccccc4)[C@H](O)CNCc4cccc(C(F)(F)F)c4)C=C1C32` (some centres not stated) [7,6,6 tricyclic sulfonamide, 10], the IC50 – broadly, the concentration needed to halve the response being measured – in assay [1] was determined as 2240 nM; in assay [2], 26 nM; in assay [3], 3800 nM.

Regarding `CCN1CCN2CCS(=O)(=O)N(C)C3C=C(C(=O)N[C@@H](Cc4ccccc4)[C@H](O)CNC4CC4)C=C1C32` (some centres not stated) [7,6,6 tricyclic sulfonamide, 19], the results for the IC50 in assay [1], in assay [2] and in assay [3] were 26300 nM, 550 nM and 16200 nM, respectively.

On to `CCc1cn2c3c(cc(C(=O)N[C@@H](Cc4ccccc4)[C@H](O)CNCc4cccc(OC)c4)cc13)N(C)S(=O)(=O)CCC2` [8,6,5 tricyclic sulfonamide, 32], for which the IC50 was found to be 1570 nM in assay [1], 28 nM in assay [2] and 1860 nM in assay [3].

`CCc1cn2c3c(cc(C(=O)N[C@@H](Cc4ccccc4)[C@H](O)CNC4CC4)cc13)N(C)S(=O)(=O)CCC2` [8,6,5 tricyclic sulfonamide, 33]: the IC50 worked out at 2900 nM in assay [1], 490 nM in assay [2] and 5460 nM in assay [3].
